Measurements taken from ChEMBL document CHEMBL5260813, “An overview on the recent developments of 1,2,4-triazine derivatives as anticancer compounds” (Eur J Med Chem, 2017).
pIC50: −log10 of the molar value. In brackets after ≈: the same amount, converted by molar mass. Blank lines part the entries; values can stand above or below the molecule they belong to.

Legend:
KB = assay: Antiproliferative activity against human KB cells assessed as inhibition of cell growth under hypoxia condition; type: functional, cell-based
A549 [1] = assay: Antiproliferative activity against human A549 cells assessed as inhibition of cell growth under hypoxia condition; type: functional, cell-based
A549 [2] = assay: Antiproliferative activity against human A549 cells assessed as inhibition of cell growth incubated for 72 hrs by MTT assay; type: functional, cell-based; settings: A549, 72 h
SMMC-7721 = assay: Antiproliferative activity against human SMMC-7721 cells assessed as inhibition of cell growth incubated for 72 hrs by MTT assay; type: functional, cell-based; settings: SMMC-7721, 72 h
K562 [3] = assay: Induction of apoptosis in human K562 cells assessed as increase in apoptotic cells under normoxia condition relative to control; type: functional
K562 [4] = assay: Induction of apoptosis in human K562 cells assessed as increase in apoptotic cells under hypoxia condition relative to control; type: functional
[5] = molecular target: Epidermal growth factor receptor (Homo sapiens, UniProt P00533); assay: Inhibition of EGFR (unknown origin)
[6] = molecular target: Vascular endothelial growth factor receptor 2 (Homo sapiens, UniProt P35968); assay: Inhibition of VEGFR-2 (unknown origin)
[7] = Antiproliferative activity against human DiFi cells assessed as inhibition of cell growth by MTS assay
HL-60 [8] = assay: Antiproliferative activity against human HL-60 cells assessed as inhibition of cell growth under normoxia condition incubated for 72 hrs by MTT assay; type: functional, cell-based; settings: HL-60, 72 h
Bel-7402 [9] = assay: Antiproliferative activity against human Bel-7402 cells assessed as inhibition of cell growth under normoxia condition incubated for 72 hrs by MTT assay; type: functional, cell-based; settings: Bel-7402, 72 h
ECa-109 cell line [10] = assay: Antiproliferative activity against human Eca-109 cells assessed as inhibition of cell growth under normoxia condition incubated for 72 hrs by MTT assay; type: functional, cell-based; settings: ECa-109, 72 h
PC-3 [11] = assay: Antiproliferative activity against human PC-3 cells assessed as inhibition of cell growth under normoxia condition incubated for 72 hrs by MTT assay; type: functional, cell-based; settings: PC-3, 72 h
MCF7 [12] = assay: Antiproliferative activity against human MCF7 cells assessed as inhibition of cell growth under normoxia condition incubated for 72 hrs by MTT assay; type: functional, cell-based; settings: MCF7, 72 h
HL-60 [13] = assay: Antiproliferative activity against human HL-60 cells assessed as inhibition of cell growth under hypoxia condition incubated for 72 hrs by MTT assay; type: functional, cell-based; settings: HL-60, 72 h
Bel-7402 [14] = assay: Antiproliferative activity against human Bel-7402 cells assessed as inhibition of cell growth under hypoxia condition incubated for 72 hrs by MTT assay; type: functional, cell-based; settings: Bel-7402, 72 h
ECa-109 cell line [15] = assay: Antiproliferative activity against human Eca-109 cells assessed as inhibition of cell growth under hypoxia condition incubated for 72 hrs by MTT assay; type: functional, cell-based; settings: ECa-109, 72 h
MCF7 [16] = assay: Antiproliferative activity against human MCF7 cells assessed as inhibition of cell growth under hypoxia condition incubated for 72 hrs by MTT assay; type: functional, cell-based; settings: MCF7, 72 h
PC-3 [17] = assay: Antiproliferative activity against human PC-3 cells assessed as inhibition of cell growth under hypoxia condition incubated for 72 hrs by MTT assay; type: functional, cell-based; settings: PC-3, 72 h
[18] = Ratio of IC50 for antiproliferative activity against human HL-60 cells assessed as inhibition of cell growth under normoxia condition to IC50 for antiproliferative activity against human HL-60 cells assessed as inhibition of cell growth under hypoxia condition; type: functional
[19] = Ratio of IC50 for antiproliferative activity against human Bel-7402 cells assessed as inhibition of cell growth under normoxia condition to IC50 for antiproliferative activity against human Bel-7402 cells assessed as inhibition of cell growth under hypoxia condition; type: functional
[20] = Ratio of IC50 for antiproliferative activity against human Eca-109 cells assessed as inhibition of cell growth under normoxia condition to IC50 for antiproliferative activity against human Eca-109 cells assessed as inhibition of cell growth under hypoxia condition; type: functional
[21] = Ratio of IC50 for antiproliferative activity against human MCF7 cells assessed as inhibition of cell growth under normoxia condition to IC50 for antiproliferative activity against human MCF7 cells assessed as inhibition of cell growth under hypoxia condition; type: functional
[22] = Ratio of IC50 for antiproliferative activity against human PC-3 cells assessed as inhibition of cell growth under normoxia condition to IC50 for antiproliferative activity against human PC-3 cells assessed as inhibition of cell growth under hypoxia condition; type: functional
[23] = molecular target: T1, Tyrosine-protein kinase SYK (Homo sapiens, UniProt P43405); assay: Inhibition of human SYK using 5-Fluo-Ahx-GAPDYENLQELNKK-Amid as substrate in presence of ATP by microfluidic mobility shift assay
TMD8 = assay: Antiproliferative activity against human TMD8 cells assessed as inhibition of cell growth incubated for 3 days by WST-1 assay; type: functional, cell-based; settings: TMD8, 72 h
OCI-Ly10 = assay: Antiproliferative activity against human OCI-Ly10 cells assessed as inhibition of cell growth incubated for 3 days by WST-1 assay; type: functional, cell-based; settings: OCI-Ly10, 72 h
[24] = Antiproliferative activity against human HBL1 cells assessed as inhibition of cell growth incubated for 3 days by WST-1 assay; type: functional, cell-based; settings: HBL1, 72 h
[25] = molecular target: T1, Tyrosine-protein kinase SYK; assay: Inhibition of SYK in human Ramos cells assessed as reduction in anti IgM-induced phosphorylation of BLNK by flow cytometry assay; type: cell-based
MCF7 [26] = assay: Antiproliferative activity against human MCF7 cells assessed as inhibition of cell growth by MTT assay; type: functional, cell-based
HepG2 = assay: Antiproliferative activity against human HepG2 cells assessed as cell growth inhibition by MTT assay; type: functional, cell-based
HCT-116 = assay: Antiproliferative activity against human HCT-116 cells assessed as inhibition of cell growth by MTT assay; type: functional, cell-based
[27] = molecular target: T2, Interleukin-1 receptor-associated kinase 4 (Homo sapiens, UniProt Q9NWZ3); assay: Inhibition of human GST-tagged IRAK4 incubated for 30 mins in presence of ATP by fluorescent polarization assay
T2 sequence (Q9NWZ3 whole entry): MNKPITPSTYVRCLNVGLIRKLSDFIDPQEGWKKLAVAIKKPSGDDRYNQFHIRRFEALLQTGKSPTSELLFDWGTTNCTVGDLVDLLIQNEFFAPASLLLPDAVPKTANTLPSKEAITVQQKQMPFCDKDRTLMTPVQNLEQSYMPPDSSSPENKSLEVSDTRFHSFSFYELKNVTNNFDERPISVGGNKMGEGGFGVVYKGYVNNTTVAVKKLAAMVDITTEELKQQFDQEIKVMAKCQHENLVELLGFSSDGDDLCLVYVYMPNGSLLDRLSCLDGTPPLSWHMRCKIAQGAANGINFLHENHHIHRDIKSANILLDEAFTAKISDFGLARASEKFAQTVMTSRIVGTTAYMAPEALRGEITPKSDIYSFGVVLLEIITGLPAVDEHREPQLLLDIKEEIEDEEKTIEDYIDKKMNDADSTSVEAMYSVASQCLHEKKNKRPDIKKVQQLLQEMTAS

[28] = molecular target: Glutaminase kidney isoform, mitochondrial (Homo sapiens, UniProt O94925); assay: Inhibition of GLS in human PC-3 cells using glutamine as substrate by amplex red staining-based horseradish peroxidase/glutamate oxidase coupled assay; type: cell-based
Glutaminase kidney isoform, mitochondrial, sequence (O94925 whole entry, canonical isoform): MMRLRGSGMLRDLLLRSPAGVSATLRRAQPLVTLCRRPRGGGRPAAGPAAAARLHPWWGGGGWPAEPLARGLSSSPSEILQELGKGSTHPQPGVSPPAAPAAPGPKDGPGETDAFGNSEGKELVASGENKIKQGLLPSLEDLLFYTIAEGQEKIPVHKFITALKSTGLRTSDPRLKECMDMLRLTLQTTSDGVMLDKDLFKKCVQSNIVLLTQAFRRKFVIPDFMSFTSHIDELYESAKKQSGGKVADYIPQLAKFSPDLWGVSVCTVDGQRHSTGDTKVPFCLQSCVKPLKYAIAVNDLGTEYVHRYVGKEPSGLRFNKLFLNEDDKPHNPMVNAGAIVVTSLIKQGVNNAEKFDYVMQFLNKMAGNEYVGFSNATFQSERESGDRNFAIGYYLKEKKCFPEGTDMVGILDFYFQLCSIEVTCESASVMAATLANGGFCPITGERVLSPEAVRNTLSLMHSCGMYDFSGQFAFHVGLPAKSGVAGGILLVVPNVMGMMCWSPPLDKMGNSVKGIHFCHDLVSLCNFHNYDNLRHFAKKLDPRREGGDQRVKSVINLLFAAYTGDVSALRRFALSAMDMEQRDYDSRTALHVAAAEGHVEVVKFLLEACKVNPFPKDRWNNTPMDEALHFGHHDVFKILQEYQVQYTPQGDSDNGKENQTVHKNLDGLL

Epidermal growth factor receptor, sequence (P00533 whole entry): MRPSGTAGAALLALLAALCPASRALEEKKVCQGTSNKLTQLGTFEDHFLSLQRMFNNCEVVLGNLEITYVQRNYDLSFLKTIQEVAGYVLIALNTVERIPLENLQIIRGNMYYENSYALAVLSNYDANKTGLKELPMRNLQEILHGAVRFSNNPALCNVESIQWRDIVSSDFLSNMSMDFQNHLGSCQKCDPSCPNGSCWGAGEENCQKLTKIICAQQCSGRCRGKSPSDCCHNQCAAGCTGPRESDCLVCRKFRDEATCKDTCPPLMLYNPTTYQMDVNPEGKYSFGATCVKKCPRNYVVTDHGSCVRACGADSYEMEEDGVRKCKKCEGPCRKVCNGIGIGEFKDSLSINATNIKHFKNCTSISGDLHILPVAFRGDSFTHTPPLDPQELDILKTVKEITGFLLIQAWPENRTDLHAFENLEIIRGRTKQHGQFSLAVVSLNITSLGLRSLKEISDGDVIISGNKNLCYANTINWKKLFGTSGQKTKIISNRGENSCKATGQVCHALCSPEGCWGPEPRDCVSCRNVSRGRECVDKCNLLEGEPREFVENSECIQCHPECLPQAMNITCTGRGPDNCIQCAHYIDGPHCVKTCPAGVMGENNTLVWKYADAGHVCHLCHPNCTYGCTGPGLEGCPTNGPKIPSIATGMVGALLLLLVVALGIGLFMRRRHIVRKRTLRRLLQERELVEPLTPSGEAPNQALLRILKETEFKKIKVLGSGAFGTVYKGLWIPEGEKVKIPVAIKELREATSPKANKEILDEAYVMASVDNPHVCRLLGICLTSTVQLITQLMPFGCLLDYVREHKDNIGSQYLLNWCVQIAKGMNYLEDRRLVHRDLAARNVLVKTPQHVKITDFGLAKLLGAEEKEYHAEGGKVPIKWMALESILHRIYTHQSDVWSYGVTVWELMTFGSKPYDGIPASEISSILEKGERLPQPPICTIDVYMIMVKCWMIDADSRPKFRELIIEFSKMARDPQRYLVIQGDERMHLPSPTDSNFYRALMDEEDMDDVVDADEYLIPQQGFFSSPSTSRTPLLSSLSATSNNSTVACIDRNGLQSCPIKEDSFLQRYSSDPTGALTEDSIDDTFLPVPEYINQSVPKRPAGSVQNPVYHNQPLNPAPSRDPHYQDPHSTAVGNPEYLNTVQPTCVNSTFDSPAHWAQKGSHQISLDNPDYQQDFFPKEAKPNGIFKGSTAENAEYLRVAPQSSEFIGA
Vascular endothelial growth factor receptor 2, sequence (P35968 whole entry): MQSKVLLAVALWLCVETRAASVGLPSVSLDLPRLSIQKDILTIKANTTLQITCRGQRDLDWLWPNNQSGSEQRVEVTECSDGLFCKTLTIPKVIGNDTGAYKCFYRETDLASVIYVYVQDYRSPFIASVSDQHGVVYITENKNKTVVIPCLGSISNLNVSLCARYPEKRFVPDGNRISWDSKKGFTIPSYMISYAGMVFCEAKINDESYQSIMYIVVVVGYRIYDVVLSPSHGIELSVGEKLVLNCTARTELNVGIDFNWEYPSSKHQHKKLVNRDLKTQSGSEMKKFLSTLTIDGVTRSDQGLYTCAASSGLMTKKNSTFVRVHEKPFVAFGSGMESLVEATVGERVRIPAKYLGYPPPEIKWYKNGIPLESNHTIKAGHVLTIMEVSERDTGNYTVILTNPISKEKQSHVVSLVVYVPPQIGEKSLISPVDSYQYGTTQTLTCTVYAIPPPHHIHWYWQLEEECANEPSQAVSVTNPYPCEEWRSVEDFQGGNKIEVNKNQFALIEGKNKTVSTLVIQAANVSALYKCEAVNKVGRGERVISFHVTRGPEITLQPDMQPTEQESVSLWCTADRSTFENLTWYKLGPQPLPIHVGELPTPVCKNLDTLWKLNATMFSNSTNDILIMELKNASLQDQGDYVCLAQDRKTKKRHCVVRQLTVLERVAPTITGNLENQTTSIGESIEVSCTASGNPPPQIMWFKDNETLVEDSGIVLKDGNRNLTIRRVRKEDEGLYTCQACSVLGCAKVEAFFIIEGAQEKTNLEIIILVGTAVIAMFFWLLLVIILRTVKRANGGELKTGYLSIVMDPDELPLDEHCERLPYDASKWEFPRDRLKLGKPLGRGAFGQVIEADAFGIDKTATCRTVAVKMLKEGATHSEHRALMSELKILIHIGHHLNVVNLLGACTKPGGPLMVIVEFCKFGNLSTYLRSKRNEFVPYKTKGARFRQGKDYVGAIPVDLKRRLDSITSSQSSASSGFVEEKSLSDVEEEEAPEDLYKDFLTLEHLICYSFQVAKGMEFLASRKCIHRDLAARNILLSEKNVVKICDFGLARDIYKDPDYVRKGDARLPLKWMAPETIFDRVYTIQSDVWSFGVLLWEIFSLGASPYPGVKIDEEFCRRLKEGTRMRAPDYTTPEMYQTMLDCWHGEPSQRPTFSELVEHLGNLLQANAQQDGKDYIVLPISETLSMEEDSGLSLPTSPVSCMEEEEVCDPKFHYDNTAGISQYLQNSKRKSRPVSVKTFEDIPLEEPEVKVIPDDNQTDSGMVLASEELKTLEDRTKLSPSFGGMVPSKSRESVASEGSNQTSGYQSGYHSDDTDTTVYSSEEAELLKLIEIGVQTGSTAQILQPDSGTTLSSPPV

Structure (SMILES): COCNc1n[n+]([O-])c2ccccc2[n+]1[O-]
pIC50 (KB): 5.57
pIC50 (A549 [1]): 5.57

Structure (SMILES): CCOCNc1n[n+]([O-])c2ccccc2[n+]1[O-]
pIC50 (A549 [2]): 5.51
pIC50 (SMMC-7721): 5.51
pIC50 (KB): 5.39
Activity (K562 [3]): 9.5%
Activity (K562 [4]): 32.11%

Structure (SMILES): COc1ccc(COCNc2n[n+]([O-])c3ccccc3[n+]2[O-])cc1
pIC50 (KB): 5.48
Activity (K562 [3]): 14.13%
Activity (K562 [4]): 33.07%

Structure (SMILES): [O-][n+]1nc(NCOCc2ccc(C(F)(F)F)cc2)[n+]([O-])c2ccccc21
pIC50 (KB): 5.37
Activity (K562 [3]): 14.95%
Activity (K562 [4]): 54.24%

Structure (SMILES): Cc1ccc2c(Nc3ccc(F)c(Cl)c3)ncnn12
pIC50 [5]: < 5.70
pIC50 [6]: 5.49
pIC50 [7]: 5.80

Structure (SMILES): Fc1ccc(Nc2ncnn3cccc23)cc1Cl
pIC50 [5]: < 5.00
pIC50 [6]: 6.93
pIC50 [7]: 5.80

Structure (SMILES): Cc1cc2c(Nc3ccc(F)c(Cl)c3)ncnn2c1
pIC50 [5]: < 5.70
pIC50 [6]: 6.82
pIC50 [7]: 5.80

Structure (SMILES): Cc1ccn2ncnc(Nc3ccc(F)c(Cl)c3)c12
pIC50 [5]: < 5.00
pIC50 [6]: 7.00
pIC50 [7]: 5.80

Structure (SMILES): [O-][n+]1nc(NC2CCCCC2)[n+]([O-])c2ccc(Cl)cc21
pIC50 (HL-60 [8]): 6.70
pIC50 (Bel-7402 [9]): 6.70
pIC50 (ECa-109 cell line [10]): 6.70
pIC50 (PC-3 [11]): 6.70
pIC50 (MCF7 [12]): 6.70
pIC50 (HL-60 [13]): 6.70
pIC50 (Bel-7402 [14]): 6.70
pIC50 (ECa-109 cell line [15]): 6.70
pIC50 (MCF7 [16]): 6.70
pIC50 (PC-3 [17]): 6.70
Ratio IC50 [18]: 6.4
Ratio IC50 [19]: 1
Ratio IC50 [20]: 2.9
Ratio IC50 [21]: 2.7
Ratio IC50 [22]: 2

Structure (SMILES): NC(=O)c1nnc(N[C@@H]2CCCC[C@@H]2N)nc1Nc1cccc2cc[nH]c12
pIC50 [23]: 9.10
pIC50 (TMD8): 6.55
pIC50 (OCI-Ly10): 7.60
pIC50 [24]: 6.98
pIC50 [25]: 7.85

Structure (SMILES): O=c1[nH]n2c(=O)c(/C=C/c3cccs3)nnc2s1
IC50 (MCF7 [26]): 8.34 µg/mL (≈ 30 µM)
IC50 (HepG2): 8.34 µg/mL (≈ 30 µM)
IC50 (HCT-116): 8.34 µg/mL (≈ 30 µM)

Structure (SMILES): O=C(O)CCc1nn2c(=O)c(/C=C/c3cccs3)nnc2s1
IC50 (MCF7 [26]): 11.7 µg/mL (≈ 34.8 µM)
IC50 (HepG2): 12.1 µg/mL (≈ 36.3 µM)
IC50 (HCT-116): 8.34 µg/mL (≈ 24.9 µM)

pIC50 [27]: 9.00
Structure (SMILES): CCn1cc(NC(=O)c2ccc3cnc(NC4CCCCC4N)nn23)c(C(N)=O)n1 (stereo not drawn)

pIC50 [28]: 7.37
Structure (SMILES): COC(C(=O)Cc1cnc(NC2CCN(c3cncnn3)C2)s1)c1cccc(OC(F)(F)F)c1 (stereo not drawn)
